Legend:
[1] = system: human CD34+ cells; experiment: Four hour homing of CD34+ cells to the liver of non-irradiated mice, local hepatic injection of human SDF-1; type: in vivo; settings: non-irradiated NOD/SCID, human SDF-1 injected into hepatic parenchyma, IV infusion of cells
Procedure: FIG. 1a is a histogram showing inhibition of homing of human CB or MPB enriched CD34^+ cells to the murine BM, spleen and liver by neutralizing CXCR4 antibodies. Data presents inhibition as percentage of control. P≦0.008, comparing anti CXCR4 treated samples to control counterparts. […] Human SDF-1 was injected to the liver parenchyma as indicated. Cells were collected from the injected lobe to determine the homing of human CD34^+ cells.
Mice—NOD/SCID mice were bred and housed as previously described [Kollet (2001) Blood 97:3283-3291]. All experiments were approved by the animal care committee of the Weizmann Institute. Mice were sublethally irradiated (i.e., 375 cGy) as indicated, 24 hours prior to transplantation. Non-irradiated mice were used when local hepatic injection of SDF-1 was effected.
CXCR4 neutralization—Human CD34^+ cells were pre-incubated with anti human CXCR4 neutralizing mAb (10 μg/0.5×10^6 cells, 12G5, R&D) and were injected (0.5-0.6×10^6 CD34^+ cells per mouse) into the tail vein without washing. Mice were killed 4 hours, 16 hours, or 5-6 weeks following cell transplantation as indicated. Single cell suspensions of liver tissues were washed thoroughly with PBS. Homing of human cells was determined as described [Kollet (2001) Blood 97:3283-3291], acquiring 1.5×10^6 cells/sample.

[2] = system: MMP-2/9; experiment: Zymography assay of MMP-2/9 activity in liver of CCl4 injected mice; type: in vivo; settings: CCl4 treated NOD/SCID mice
[3] = system: human CD34+ cells; experiment: Four hour homing of human CD34+ cells to the CCl4-injured liver of NOD/SCID mice; type: in vivo; settings: non-irradiated NOD/SCID mice, 15 μl CCl4 24 hours prior, four hour assay
Procedure: (§1) Liver injury—Mice were injected intraperitoneally (IP) with 10, 15 or 30 μl/mouse of CCl4 and liver samples were collected within a few hours, or 1-2 days following injection, as indicated. In homing assays, mice were intraveneously (IV) transplanted with human MPB CD34^+ cells (0.6×10^6 cells/mouse) 4 hours prior to liver collection. Homing was blocked by preincubation of transplanted cells with 10 μg of anti CXCR4/mouse or by IP injection of 100 μg/mouse of a specific MMP2/9 inhibitor III (CalBiochem, catalogue #444251). Human progenitors in the blood circulation of engrafted mice transplanted a month before with human CB MNC (20×10^6 cells/mouse) were quantified by seeding 2×10^5 mononuclear cells/ml in colony forming unit assay as described [Kollet (2001) Blood 97:3283-3291]. CXCR4 expression was determined by flow cytometry.

[4] = system: CXCR4; experiment: Human CXCR4 staining of peripheral blood MNC of chimeric mice, flow cytometry; type: in vivo; settings: CCl4 treated chimeric mice
Procedure: as §1

[5] = system: human colony forming progenitors; experiment: Human progenitors in blood circulation of engrafted mice, colony forming unit assay; type: in vivo; settings: engrafted NOD/SCID mice, one day after single injection of 10 μl CCl4
Procedure: Data summarize three independent experiments.
as §1

[6] = system: CXCR4; experiment: Surface CXCR4 expression on CD34+ cells by FACS; type: cell-based, human; settings: CB CD34+ cells, 5 hours incubation
Procedure: CB CD34^+ cells were incubated for 5 hours with RPMI growth medium and HT1080 conditioned medium. Cells were stained with isotype control antibody as a negative control (Isot), or with CXCR4 antibody. Representative data of 3 experiments is shown.
Human cells—Cord blood (CB) cells and adult mobilized peripheral blood (MPB) cells were obtained after informed consent in accordance with procedures approved by the human ethics committee of the Weizmann Institute. CD34^+ cell enrichment was effected using magnetic bead separation as previously described [Kollet (2001) Blood 97:3283-3291]. CXCR4 expression was determined by flow cytometry using purified anti human CXCR4 (clone 12G5, R&D, Minneapolis, Minn.) and secondary F(ab′)2 fragment of goat anti mouse IgG FITC (Jackson, West Grove, Pa.).

**Q.** With “SDF-1: chemokine stromal derived factor, ligand of CXCR4” as the molecule, how does the “homing of CD34+ progenitors to the liver” value [1] read?
**A.** increased the homing

**Q.** With ClC(Cl)(Cl)Cl [CCl4, Carbon tetrachloride] as the molecule, how does the “MMP-9 expression in the liver” value [2] read?
**A.** emergence of MMP-9 expression

**Q.** What about the “activity of MMP-2 in the liver” value [2] of the same molecule?
**A.** increased activity

**Q.** And the “homing of human CD34+ cells to the injured liver” value [3]?
**A.** rapidly induced homing

**Q.** And the “CXCR4 expression on human MNC cells in the circulation” value [4]?
**A.** increased level of CXCR4 expression

**Q.** And the “recruitment of human colony forming progenitors from bone marrow to the circulation” value [5]?
**A.** induced the recruitment

B1: purified MMP-2: purified recombinant MMP-2 (protein, UniProt P08253 110-660, looked up)
72 kDa type IV collagenase: YNFFPRKPKWDKNQITYRIIGYTPDLDPETVDDAFARAFQVWSDVTPLRFSRIHDGEADIMINFGRWEHGDGYPFDGKDGLLAHAFAPGTGVGGDSHFDDDELWTLGEGQVVRVKYGNADGEYCKFPFLFNGKEYNSCTDTGRSDGFLWCSTTYNFEKDGKYGFCPHEALFTMGGNAEGQPCKFPFRFQGTSYDSCTTEGRTDGYRWCGTTEDYDRDKKYGFCPETAMSTVGGNSEGAPCVFPFTFLGNKYESCTSAGRSDGKMWCATTANYDDDRKWGFCPDQGYSLFLVAAHEFGHAMGLEHSQDPGALMAPIYTYTKNFRLSQDDIKGIQELYGASPDIDLGTGPTPTLGPVTPEICKQDIVFDGIAQIRGEIFFFKDRFIWRTVTPRDKPMGPLLVATFWPELPEKIDAVYEAPQEEKAVFFAGNEYWIYSASTLERGYPKPLTSLGLPPDVQRVDAAFNWSKNKKTYIFAGDKFWRYNEVKKKMDPGFPKLIADAWNAIPDNLDAVVDLQGGGHSYFFKGAYYLKLENQSLKSVKFGSIKSDWLGC
**Q.** For B1, which “surface CXCR4 expression on enriched human CD34+ cells” value [6] is on record?
**A.** upregulation of CXCR4

Reference: US8252588B2, “Stem cells having increased sensitivity to SDF-1 and methods of generating and using same” (Yeda Research and Development Co. Ltd., priority 2003, dated 2012)
